Test results taken from patent US20240238255A1, “KL1333 FOR USE IN MEDICINE” (ABLIVA AB, priority 2021, published 2024).

Columns and labels:
[1] = Plasma exposure of Total KL1333, Part C patients with primary mitochondrial disease; conditions: human, in vivo
Description: (§1) Part C will comprise a randomised, multiple-dose, single-group, placebo-controlled study. A total of 8 patients diagnosed with any mitochondrial disease will be enrolled in this part of the study. Part C may start after the dose selection conference has been completed for the final cohort of Part B, at a daily dose no higher than the highest well-tolerated dose in Part B.
It is planned for patients to receive study drug QD on Days 1 to 10. Dose levels, dose frequency, and dietary state will be confirmed following review of safety, tolerability, and PK data from Part B, and unless deemed very unfavourable for the conduct of the study, the patients will not be required to be fasting prior to dosing. Study drug will be administered by clinical site staff when the patients are resident at the clinical site or return for outpatient visits. On all other days, patients will record drug administration and any concomitant medications in a diary that will be provided to each patient. Diaries will be reviewed and checked for compliance during the outpatient visits and as part of the check-in procedures on Day 10. Clinical symptoms that occur while patients are not resident at the site will be collected by the site using standard adverse event (AE) reporting procedures. […]

[2] = tested on: healthy subjects; assay: Safety and tolerability in healthy subjects (Parts A, B, D); assay type: in vivo, human
Procedure: Part A will comprise a randomised, single-dose, single-sequence, placebo-controlled study. Eight healthy subjects will be studied in a single cohort (Group A1). Potential subjects will be screened to assess their eligibility to enter the study within 28 days prior to the first dose administration. Subjects will participate in 2 treatment periods. For each treatment period, subjects will reside at the Phase I clinical site from Days −1 to 3 (48 hours postdose). Subjects will return to the clinical site for outpatient visits on Days 4 and 5. There will be at least a 10-day washout between doses (from Period 1, Day 1 to Period 2, Day 1).
Six subjects will be randomised to receive 25 mg KL1333 and 2 subjects will be randomised to receive placebo, and subjects will receive the same treatment in both treatment periods. On Treatment Period 1, Day 1, subjects will receive a single oral dose of study drug following an overnight fast of at least 8 hours. On Treatment Period 2, Day 1, subjects will receive a single oral dose of study drug after consuming a standard high-fat breakfast. Following review of safety, tolerability, and PK data, up to 2 additional dose cohorts of healthy subjects may be added if needed to determine the study treatment for
Part B will comprise a randomised, multiple-dose, sequential-group, placebo-controlled study. Sixteen healthy subjects will be studied in 2 cohorts (Groups B1 and B2), with each cohort consisting of 8 subjects. Part B may start after completion of Group A1, at a dose equal to or less than given in Part A.
On Day 1, 6 subjects will be randomised to receive KL1333 and 2 subjects will be randomised to receive placebo. The preliminary planned doses of KL1333 for Groups B1 and B2 are 25 and 50 mg, respectively, once daily (QD) on Days 1 to 10. Dose levels, dose frequency, and dietary state will be confirmed following review of safety, tolerability, and PK data from Part A and ongoing data from Part B. Additionally, a dose selection conference meeting will be held before each cohort in Part B where blinded data from the previous cohort will be reviewed before a decision is made about proceeding to the next cohort. Following review of safety, tolerability, and PK data, up to 3 additional dose cohorts of healthy subjects may be added to further explore the PK, safety, and tolerability of KL1333. If additional cohorts are required, each cohort will consist of 8 subjects, with 6 subjects receiving KL1333 and 2 subjects receiving placebo. The dose level will not exceed 600 mg, and the predicted exposure following multiple daily dose administration in any subject in Part B will not exceed an AUC0-24 of 51,800 ng.h/mL for derived total KL1333. There will be a minimum of 6 days between dose escalations for each cohort (between the last dose of one cohort and the first dose of the next cohort). Subjects will return for a Follow-up visit on Day 15, 5 days after their final dose.
Part D will comprise a randomised, multiple-dose, placebo-controlled study. Sixteen healthy subjects will be studied in 2 cohorts (Groups D1 and D2), with each cohort consisting of 8 subjects. Part D will start after completion of Part B, and the Part D groups may be run in parallel.
On Day 1, 6 subjects will be randomised to receive KL1333 and 2 subjects will be randomised to receive placebo. The doses of KL1333 for Groups D1 and D2 are 75 mg twice daily (BID) and 50 mg 3 times daily (TID), respectively, on Days 1 to 10 with a single dose administration on Day 10.
The safety and tolerability of KL1333 in healthy volunteers was explored at multiple ascending doses in part B and D of the study. Part D specifically explored if tolerability was improved by dividing the daily dose into two and three administrations respectively. Cohorts B3, D1 and D2 all received total daily doses of 150 mg for 10 days. Cohort B3 received 150 mg once daily (QD), cohort D1 received 75 mg twice daily (BID), and cohort D2 50 mg three times daily (TID). […]

[3] = tested on: patients with primary mitochondrial disease; assay: Safety and tolerability in patients with primary mitochondrial disease (Part C); assay type: in vivo; conditions: multiple oral QD doses of 50 mg for 10 days
Description: as §1
Two patients will be initially dosed, with 1 patient receiving KL1333 and 1 patient receiving placebo. If there are no safety or tolerability concerns in these patients following the Day 4 visit, the remaining 6 patients, with 5 patients receiving KL1333 and 1 patient receiving placebo, will be enrolled on a rolling basis. In the event there are safety concerns following completion of the 2 sentinel patients without meeting stopping criteria, the Sponsor may add intermediate cohorts if the safety evaluation in intermediate cohorts will be needed. The dosing schedule of intermediate cohorts will be the same as that of the planned cohort. The schedule of safety assessments of intermediate cohorts will be the same as that of the planned cohort as a general rule. Whether or not to add safety assessments in the intermediate cohorts will be determined by the Sponsor.
It is planned for patients to receive study drug QD on Days 1 to 10. […]

[4] = tested on: patients with primary mitochondrial disease; assay: NeuroQoL Short Form Fatigue in primary mitochondrial disease patients; assay type: in vivo, human
[5] = tested on: patients with primary mitochondrial disease; assay: Daily Fatigue Impact Scale (D-FIS) in primary mitochondrial disease patients; assay type: in vivo, human
[6] = tested on: patients with primary mitochondrial disease; assay: 30 Second Sit-to-Stand Test in primary mitochondrial disease patients; assay type: in vivo, human; conditions: 50 mg QD for 10 days, versus placebo; number of sit to stand repetitions
[7] = tested on: patients with primary mitochondrial disease; assay: Clinical outcome assessments overall in primary mitochondrial disease patients; assay type: in vivo, human
[8] = tested on: blood lactate/pyruvate ratio; assay: Blood lactate/pyruvate ratio in healthy volunteers; assay type: in vivo, human
Procedure: FIG. 5. Healthy volunteers were treated with KL1333 (n=36) or placebo (n=14) once daily for 9 days prior to blood sampling for measurement of lactate and pyruvate concentrations and calculation of a lactate pyruvate ratio. Data for different doses of KL1333 were combined, including 50 mg QD, 50 mg TID, 75 mg QD, 75 mg BID, 150 mg QD and 250 mg QD.
FIG. 6. The blood lactate/pyruvate concentration ratio decreased with increasing concentration of KL1333 in plasma Day 10 after treatment with KL1333. Healthy volunteers were treated with KL1333 (n=36) or placebo (n=14) once daily for 9 days prior to blood sampling for measurement of lactate and pyruvate concentrations and calculation of a lactate pyruvate ratio. Data for different doses of KL1333 were combined from 7 cohorts consisting of two placebo and 6 KL1333 subjects, treated with 25 mg QD, 50 mg QD, 50 mg TID, 75 mg QD, 75 mg BID, 150 mg QD and 250 mg QD. Data were normalized against the cohort mean value for each cohort.
(§2) For Parts B through D, blood biomarker assessments will include: • nicotinamide adenine dinucleotide (oxidized form; NAD^+)/nicotinamide adenine dinucleotide (reduced form; NADH) concentrations and ratio • fibroblast growth factor-21 (FGF21) • growth/differentiation factor-15 (GDF15) • lactate/pyruvate concentrations and ratio.

[9] = tested on: lactate/pyruvate ratio, serum niacinamide, serum xanthine; assay: Blood and serum biomarkers in PMD patients; assay type: in vivo, human
Procedure: FIG. 7. Lactate/Pyruvate ratio in PMD patients treated daily with 50 mg KL1333 (n=6) or placebo (n=2) for 10 days.
FIG. 8. Serum niacinamide is an early biomarker of response to KL1333 treatment. PMD patients were treated with 50 mg KL1333 QD (n=6) or placebo (n=2). The data are expressed as the ratio of the niacinamide concentrations in Day 2 and Day 1 serum samples.
FIG. 9. Serum xanthinse is an early biomarker of response to KL1333 treatment. PMD patients were treated with 50 mg KL1333 QD (n=6) or placebo (n=2). The data are expressed as the ratio of the xanthine concentrations in Day 2 and Day 1 serum samples.
as §2

[10] = biological target: NQO1 (Homo sapiens, UniProt P15559); assay: NQO1 substrate activity; assay type: biochemical; conditions: compared with other NQO1 active compounds (ie, idebenone)
Chain of NQO1 (P15559 whole entry, species assumed): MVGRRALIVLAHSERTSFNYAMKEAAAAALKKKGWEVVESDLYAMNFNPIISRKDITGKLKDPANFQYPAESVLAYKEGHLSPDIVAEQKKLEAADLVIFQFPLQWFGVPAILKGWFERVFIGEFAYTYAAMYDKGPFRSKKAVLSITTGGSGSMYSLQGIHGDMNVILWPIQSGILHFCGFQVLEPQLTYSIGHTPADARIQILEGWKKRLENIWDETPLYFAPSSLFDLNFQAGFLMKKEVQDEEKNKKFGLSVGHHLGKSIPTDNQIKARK
Description: KL1333 is a novel compound under development for primary mitochondrial diseases. KL1333 acts as a substrate for NAD(P)H:dehydrogenase [quinone]1 (NQO1), which produces nicotinamide adenine dinucleotide (oxidized form; NAD^+) by transferring 2 electrons to KL1333 using nicotinamide adenine dinucleotide (reduced form; NADH) as a cofactor. KL1333 transfers these electrons to the mitochondrial electron transport system, directly promoting ATP production. Additionally, the elevated NAD^+ levels lead to activation of mitochondrial biogenesis pathways, such as sirtuin 1 (SIRT1), 5′-adenosine monophosphate-activated protein kinase (AMPK), and peroxisome proliferator-activated receptor gamma coactivator 1-alpha (PGC-1α), thereby improving mitochondrial function.

[11] = tested on: cells derived from patients with MELAS; assay: Cellular models, including cells derived from patients with MELAS; assay type: cell-based, human; conditions: including MELAS patient-derived cells
[12] = Drug substance properties; assay type: physicochemical; conditions: crystalline powder
Description: KL-1333 is a drug substance with a molecular mass of 240.26 g/mol. […] It is manufactured via multi-step chemical synthesis.

[13] = 50 mg once daily, 10 days of dosing, PMD patients
[14] = 50 mg QD, after one day of treatment (Day 2/Day 1)

SMILES: CC(C)c1nc2c([nH]1)C(=O)C(=O)c1ccccc1-2 [KL1333]
- pharmacokinetics profile, healthy volunteers versus patients [1]: similar
- frequency and severity of loose stool episodes (Bristol Stool chart) ([2]; 150 mg daily for 10 days: 75 mg BID and 50 mg TID versus 150 mg QD): improved
- tolerability ([2]; QD doses of 150 mg, healthy subjects): tolerated
- tolerability ([2]; QD doses of 250 mg, healthy subjects, GI TEAEs): poorly tolerated
- tolerability ([2]; QD doses of 25 to 75 mg, healthy subjects): well tolerated
- tolerability of BID or TID versus QD dosing ([2]; daily doses of 150 mg, healthy subjects, GI-related adverse events): better tolerated
- clinical chemistry, hematology, urinalysis data ([2]; mean or individual subject data during the study): no apparent treatment- or dose-related trends
- tolerability ([2]; single oral doses of 25 mg with or without food, healthy subjects): well tolerated
- vital signs, 12-lead ECGs, physical examinations ([2]; whole study): no apparent treatment- or dose-related trends
- serious adverse events ([2]; whole study: 64 healthy volunteers and 8 patients, KL1333 or placebo): no serious adverse events
- tolerability [3]: well tolerated
- NeuroQoL Short Form Fatigue, mean change ([4]; 50 mg QD for 10 days, baseline to day 10, n=6 versus placebo n=2): improvement
- NeuroQol fatigue change from baseline, high exposure group versus placebo ([4]; 50 mg QD for 10 days, high exposure patients, Kruskal-Wallis test): statistically significant better than placebo
- correlation of NeuroQol SF Fatigue raw score change with Total KL1333 Ctrough ([4]; change from baseline to day 10, Ctrough at day 10): statistically significant correlation
- Daily Fatigue Impact Scale, mean change ([5]; 50 mg QD for 10 days, versus placebo, reduction of fatigue impacts on daily activities): greater improvement
- correlation of DFIS change with Total KL1333 Ctrough ([5]; change from day-1 to day 10, Ctrough at day 10): statistically significant correlation
- 30s Sit-to-stand test, mean change [6]: greater improvement
- fatigue [7, 13]: marked improvement in fatigue
- muscle strength [7, 13]: marked improvement in muscle strength
- combatting fatigue and muscle weakness ([7]; clinical outcome assessments of primary mitochondrial disease patients): effective
- blood lactate pyruvate ratio in relation to plasma concentration of KL1333 ([8]; Day 10, plasma concentration prior to blood sampling): lowest in individuals with a plasma concentration of KL1333 exceeding 100 ng/ml
- blood lactate/pyruvate ratio ([8]; after 10 days of treatment, doses combined (n=36 versus placebo n=14)): trend of decreasing
- serum niacinamide [9, 14]: increased
- serum xanthine [9, 14]: increased
- lactate/pyruvate ratio, Day 10 compared to Day 1 ([9]; 50 mg daily for 10 days (n=6), not seen in placebo): decreased
- potency as substrate to NQO1 [10]: more potent substrate to NQO1 than other NQO1 active compounds
- ATP [11]: increased ATP
- NAD+ [11]: increased NAD^+
- ROS [11]: decreased ROS
- SIRT1, AMPK and PGC-1α activation [11]: activation of SIRT1, AMPK, and PGC-1α
- lactic acid [11]: decreased lactic acid
- mitochondrial oxidative phosphorylation function [11]: improved mitochondrial oxidative phosphorylation function
- hygroscopicity [12]: non-hygroscopic
- solubility in water [12]: practically insoluble
